Reference: patent US12600696B2 (XENIOPRO GMBH, priority 2017, dated 2026)

Test system: Notch signaling (hNotch1ΔE, human Notch1 receptor) in HeLa cells
Experiment: Notch reporter assay (luciferase luminescence readout in transfected HeLa cells)
Type: cell-based
Settings: 20 hours; for fold induction at 10 µM: Homo sapiens, relative to DMSO baseline level of 1.0, read-out: AVEw, weighted arithmetic mean of double-normalized Notch-reporter luciferase luminescence values (Activity Range)
Description: An according Notch-reporter assay, i.e. a luciferase-based luminescence readout, was used here to quantify the ability of the claimed small molecules to augment Notch signaling in a cellular system. For this purpose, HeLa cells, obtainable from the American Type Culture Collection (ATCC) under the accession number ATCC-CCL-2, were transiently transfected for 24 hours using FuGENE® HD (Promega, #E2311) as transfection reagent with expression vectors of a membrane-tethered form of the constitutively active intracellular domain of the human Notch1 receptor (hNotch1ΔE) to activate the signaling cascade (BPS Bioscience, human analogue to Notch Pathway Reporter Kit #60509 component C), a Firefly luciferase being expressed under the control of a Notch-responsive promoter to monitor Notch signaling (BPS Bioscience, Notch Pathway Reporter Kit #60509, CSL luciferase reporter vector from component A not premixed with Renilla luciferase vector), and a Renilla luciferase being constitutively expressed in a Notch signaling independent manner to include a measure for the cell number per sample (Promega, pRL-SV40, #E2231). HeLa cells were cultivated according to the protocol of the provider in DMEM medium (Fisherscientific, #11584456) containing 10% fetal bovine serum (Fisherscientific, #15517589). The transfection was carried out in a 100 mm-culture dish (StarLab, #CC7682-3394) with cells being properly attached to the plate at a cell confluency of 80-90% in a total volume of 7 mL culture medium. Per dish to be transfected, a transfection mix was prepared by adding to 238 μL Opti-MEM (Fisherscientific, #10149832) 40 μL of the hNotch1ΔE expression vector (100 ng/μL), 80 μL of the CSL luciferase reporter vector (40 ng/μL), 4 μL of the pRL-SV40-Renilla luciferase vector (10 ng/μL), and in the last step 18.1 μL of FuGENE® HD. After addition of FuGENE® HD the transfection mix was let stand for 15 min at room temperature and hereafter equally distributed into the culture dish. Subsequently, i.e. after 24 hours of transfection, the transfected cells (10.000 cells per well) were incubated with the test-compounds at a final concentration of 10 μM (diluted from 10 mM stock-solutions in DMSO to a final DMSO concentration of 0.1% v/v) or with the empty carrier DMSO at 0.1% v/v as control for 20 hours in 96-well plates suitable for luminescence readouts (CORNING, #3610). Hereafter, the cells were lysed with 30 μL per well of Passive Lysis Buffer (Promega, #E194A, component of Dual-Luciferase® Reporter Assay System, #E1910) and the Firefly as well as Renilla luciferase values were measured with a luminescence reader with applying 15 μL per well each of the corresponding enzyme substrates needed to create the luminescence signals (Promega, Dual-Luciferase® Reporter Assay System, #E1910).
The suitability of the assays for monitoring Notch signaling was controlled by additionally including a generally accepted commercial Notch inhibitor, i.e. DAPT, as negative control, as well as the reported Notch enhancer resveratrol (RES) as positive control (Pinchot et al., Cancer 2011, 117, 1386-1398; Truong et al., Ann. Surg. Oncol. 2011, 18, 1506-1511; Yu et al., Mol. Cancer Ther. 2013, 12, 1276-1287). Both control compounds were likewise tested at 10 μM.
Per single experiment the measurement was performed in six replicates per compound. For every compound, this experiment was repeated in three or more independent replicates. The values of the Notch-reporter luciferase were normalized by division through the corresponding individual Notch-independent Renilla values in order to eliminate the impact of variation in the absolute cell-numbers in between the samples. For every individual plate, a second normalization was performed against the equally weighted arithmetic mean (here abbreviated as AVE) of the six associated Renilla-normalized DMSO-control values within a single experiment in order to obtain the relative values to a baseline level of 1.0. […]

Structure (SMILES) | fold induction at 10 µM | AVEw, weighted arithmetic mean of double-normalized Notch-reporter luciferase luminescence values (Activity Range) (10 μM, relative to DMSO baseline level of 1.0)
CCCc1ccc(Oc2ccc(C(=O)O)cc2)cc1 [Compound 003, 4-(4-propylphenoxy)benzoic acid] | 1.7 to 2 | 
CCCCc1ccc(Oc2ccc(C(=O)O)cc2)cc1 [Compound 004, 4-(4-butylphenoxy)benzoic acid] | 1.4 to 1.7 | 
CCCCCc1ccc(Oc2ccc(C(=O)O)cc2)cc1 [Compound 005, 4-(4-Pentylphenoxy)benzoic acid] | 1.7 to 2 | 
CC(C)c1ccc(Oc2ccc(C(=O)O)cc2)cc1 [Compound 007, 4-(4-isopropylphenoxy)benzoic acid] | 1.2 to 1.3 | 
O=C(O)c1ccc(Oc2ccc(C3C[C@@H]4CC[C@H]3C4)cc2)cc1 (stereo partly drawn) [Compound 019, 4-(4-((1S,4R)-bicyclo[2.2.1]heptan-2-yl)phenoxy)benzoic acid] | 1.2 to 1.3 | 
CCCc1ccc(Oc2ccc(C(=O)OC)cc2)cc1 [Compound 025, methyl 4-(4-propylphenoxy)benzoate] | 1.2 to 1.3 | 
CCCCc1ccc(Oc2ccc(C(=O)OC)cc2)cc1 [Compound 026, methyl 4-(4-butylphenoxy)benzoate] | 1.4 to 1.7 | 
CCCCCc1ccc(Oc2ccc(C(=O)OC)cc2)cc1 [Compound 027, methyl 4-(4-pentylphenoxy)benzoate] | 1.7 to 2 | 
CCCc1ccc(Oc2ccc(C(=O)OCC)cc2)cc1 [Compound 050, ethyl 4-(4-propylphenoxy)benzoate] | 1.4 to 1.7 | 
CCCCc1ccc(Oc2ccc(C(=O)OCC)cc2)cc1 [Compound 051, Ethyl 4-(4-butylphenoxy)benzoate] | 1.7 to 2 | 
CCCCCc1ccc(Oc2ccc(C(=O)OCC)cc2)cc1 [Compound 052, ethyl 4-(4-pentylphenoxy)benzoate] | 1.4 to 1.7 | 
CCCc1ccc(Oc2ccc(C(=O)O)cn2)cc1 [Compound 071, 6-(4-Propylphenoxy)nicotinic acid] | 1.4 to 1.7 | 
COC(=O)c1ccc(Oc2ccc(C)cc2)nc1 [Compound 091, methyl 6-(p-tolyloxy)nicotinate] | 1.2 to 1.3 | 
COC(=O)c1ccc(Oc2ccc(C34CC5CC(CC(C5)C3)C4)cc2)nc1 [Compound 114, Methyl 6-(4-(adamantan-1-yl)phenoxy)nicotinate] | 1.7 to 2 | 
CCOC(=O)c1ccc(Oc2ccc(CC)cc2)nc1 [Compound 117, Ethyl 6-(4-Ethylphenoxy)nicotinate] | 1.4 to 1.7 | 
CCCc1ccc(Oc2ccc(C(=O)OCC)cn2)cc1 [Compound 118, ethyl 6-(4-propylphenoxy)nicotinate] | 1.1 to 1.2 | 
CCCCCc1ccc(Oc2ccc(C(=O)OCC)cn2)cc1 [Compound 120, ethyl 6-(4-pentylphenoxy)nicotinate] | 1.4 to 1.7 | 
CCOC(=O)c1ccc(Oc2ccc(C(C)C)cc2)nc1 [Compound 122, ethyl 6-(4-isopropylphenoxy)nicotinate] | 1.3 to 1.4 | 

Structure (SMILES) | fold induction at 10 µM | AVEw, weighted arithmetic mean of double-normalized Notch-reporter luciferase luminescence values (Activity Range) (10 μM, relative to DMSO baseline level of 1.0)
CNC(=O)c1ccc(Oc2ccc(C)cc2)cc1 [Compound 189, N-methyl-4-(p-tolyloxy)benzamide] | 1.1 to 1.2 | 
CNC(=O)c1ccc(Oc2ccc(C(C)C)cc2)cc1 [Compound 195, 4-(4-Isopropylphenoxy)-N-methylbenzamide] | 1.2 to 1.3 | 
CN(C)C(=O)c1ccc(Oc2ccc(C3CCCCC3)cc2)cc1 [Compound 234, 4-(4-cyclohexylphenoxy)-N,N-dimethylbenzamide] | 1.1 to 1.2 | 
Cc1ccc(Oc2ccc(C(N)=O)cn2)cc1 [Compound 241, 6-(p-Tolyloxy)nicotinamide] | 1.2 to 1.3 | 
CCc1ccc(Oc2ccc(C(N)=O)cn2)cc1 [Compound 242, 6-(4-ethylphenoxy)nicotinamide] | 1.2 to 1.3 | 
CC(C)c1ccc(Oc2ccc(C(N)=O)cn2)cc1 [Compound 247, 6-(4-isopropylphenoxy)nicotinamide] | 1.2 to 1.3 | 
CNC(=O)c1ccc(Oc2ccc(C)cc2)nc1 [Compound 291, N-methyl-6-(p-tolyloxy)nicotinamide] | 1.4 to 1.7 | 
CCc1ccc(Oc2ccc(C(=O)NC)cn2)cc1 [Compound 292, 6-(4-ethylphenoxy)-N-mtehylnicotinamide] | 1.3 to 1.4 | 
CNC(=O)c1ccc(Oc2ccc(C(C)C)cc2)nc1 [Compound 297, 6-(4-Isopropylphenoxy)-N-methylnicotinamide] | 1.4 to 1.7 | 
CCCc1ccc(Oc2ccc(C(=O)O)cc2F)cc1 [Compound 343, 3-fluoro-4-(4-propylphenoxy)benzoic acid] | 1.1 to 1.2 | 
CCCCc1ccc(Oc2ccc(C(=O)O)cc2F)cc1 [Compound 344] | 1.3 to 1.4 | 
O=C(O)c1ccc(Oc2ccc(C34CC5CC(CC(C5)C3)C4)cc2)c(F)c1 [Compound 363, 4-(4-((3r,5r,7r)-adamantan-1-yl)phenoxy)-3-fluorobenzoic acid] | 1.2 to 1.3 | 
CCCc1ccc(Oc2ccc(C(=O)OCC)cc2F)cc1 [Compound 394, ethyl 3-fluoro-4-(4-propylphenoxy)benzoate] | 1.4 to 1.7 | 
CCCCCc1ccc(Oc2ccc(C(=O)OCC)cc2F)cc1 [Compound 396, ethyl 3-fluoro-4-(4-pentylphenoxy)benzoate] | 1.2 to 1.3 | 
CCC(C)(C)c1ccc(Oc2ncc(C(=O)OC)cc2F)cc1 [Compound 451, Methyl 5-fluoro-6-(4-(tert-pentyl)phenoxy)nicotinate] | 1.1 to 1.2 | 
O=C(O)c1ccc(Oc2ccc(C3(C(F)(F)F)CC3)cc2)cc1 [Compound 703, 4-(4-(1-(Trifluoromethyl)cyclopropyl)phenoxy)benzoic acid] | 1.1 to 1.2 | 
O=C(O)c1ccc(Oc2ccc(C3(C(F)(F)F)CC3)cc2)nc1 [Compound 730, 6-(4-(1-(Trifluoromethyl)cyclopropyl)phenoxy)nicotinic acid] | 1.1 to 1.2 | 
C[C@H](NC(=O)Cc1cc(F)cc(F)c1)C(=O)N[C@H](C(=O)OC(C)(C)C)c1ccccc1 [DAPT, reference compound] |  | 0.1 ± 0.0
